Literature values, collected in patent US20230066413A1, “ST[…]” (priority 2021, published 2023).

Test system: antibiotic-resistant bacteria
Conditions: stated in background, no experiment described

For `O=c1c(O)c(-c2ccc(O)c(O)c2)oc2cc(O)cc(O)c12` [Quercetin], the bactericidal concentration is given as 5,000 parts per million.
